{
  "source": "patent US20220275391A1",
  "about": "“METHODS OF USING ALS INHIBITOR HERBICIDES FOR CONTROL OF UNWANTED VEGETATION IN ALS INHIBITOR HERBICIDE TOLERANT BETA VULGARIS PLANTS” (priority 2010, published 2022)",
  "details_in_all_cases": "BBCH 14",
  "key": {"[1]": {"test_system": "KLARINA", "assay": "Field trial, phytotoxicity scoring on ALS inhibitor sensitive reference variety KLARINA", "source_text": "(§1) The water quantity applied in the various applications equaled 200 l/ha. At 8, 14, 16, 17, 28, and 31 days (as indicated in the various Tables) after application (DAA) of the respective ALS inhibitor herbicide(s), the damages (phytotoxicity/phyto) on the different sugar beet plants were scored according to the scale from 0% to 100%.\n(§2) In this context, “0%” means “no phytotoxicity/phyto” and “100%” means plants were completely killed."}, "[2]": {"test_system": "SB574TL based sugar beet", "assay": "Field trial, phytotoxicity scoring on homozygous SB574TL mutant sugar beet", "assay_type": "in vivo, Beta vulgaris", "from_the_text": "Based on SB574TL, F4—F6 seeds conferring the mutant allele of the endogenous ALS gene in the homozygous state were applied for further testing."}, "[3]": {"test_system": "BERETTA", "assay": "Field trial, phytotoxicity scoring on ALS inhibitor sensitive reference variety BERETTA", "assay_type": "in vivo, Beta vulgaris", "source_text": "as §1, §2"}},
  "data": [
    {"molecule": "COCc1cnc(C2=NC(C)(C(C)C)C(=O)N2)c(C(=O)O)c1", "note": "(stereo not drawn) [Imazamox (B1-2), imazamox]", "values": [
      {"measurement": "% phyto", "setting": "[1]; 40 g/ha, 8 days", "result": 90, "unit": "%"},
      {"measurement": "% phyto", "setting": "[1]; 40 g/ha, 14 days", "result": 97, "unit": "%"},
      {"measurement": "% phyto", "setting": "[1]; 40 g/ha, 28 days", "result": 99, "unit": "%"},
      {"measurement": "% phyto", "setting": "[2]; 40 g/ha, 8 days", "result": 0, "unit": "%"},
      {"measurement": "% phyto", "setting": "[2]; 40 g/ha, 14 days", "result": 0, "unit": "%"},
      {"measurement": "% phyto", "setting": "[2]; 40 g/ha, 28 days", "result": 0, "unit": "%"}
    ]},
    {"molecule": "COc1nc(C)nc(NC(=O)NS(=O)(=O)c2ccccc2I)n1.[Na]", "note": "[(A1-41), 2-iodo-N-[(4-methoxy-6-methyl-1,3,5-triazinyl)carbamoyl]benzene-sulfonamide sodium salt]", "values": [
      {"measurement": "% phyto", "setting": "[1]; 30 g/ha, 8 days", "result": 90, "unit": "%"},
      {"measurement": "% phyto", "setting": "[1]; 30 g/ha, 14 days", "result": 98, "unit": "%"},
      {"measurement": "% phyto", "setting": "[1]; 30 g/ha, 28 days", "result": 100, "unit": "%"},
      {"measurement": "% phyto", "setting": "[2]; 30 g/ha, 8 days", "result": 14, "unit": "%"},
      {"measurement": "% phyto", "setting": "[2]; 30 g/ha, 14 days", "result": 10, "unit": "%"},
      {"measurement": "% phyto", "setting": "[2]; 30 g/ha, 28 days", "result": 0, "unit": "%"}
    ]},
    {"molecule": "COc1cc(OC)nc(NC(=O)NS(=O)(=O)c2ncccc2C2=NOCCO2)n1.[Na+]", "note": "[(A1-87)]", "values": [
      {"measurement": "% phyto", "setting": "[1]; 15 g/ha, 8 days", "result": 90, "unit": "%"},
      {"measurement": "% phyto", "setting": "[1]; 15 g/ha, 14 days", "result": 97, "unit": "%"},
      {"measurement": "% phyto", "setting": "[1]; 15 g/ha, 28 days", "result": 99, "unit": "%"},
      {"measurement": "% phyto", "setting": "[1]; 30 gai/ha, 8 DAA", "result": 83, "unit": "%"},
      {"measurement": "% phyto", "setting": "[1]; 30 gai/ha, 17 DAA", "result": 100, "unit": "%"},
      {"measurement": "% phyto", "setting": "[1]; 30 gai/ha, 31 DAA", "result": 100, "unit": "%"},
      {"measurement": "% phyto", "setting": "[2]; 15 g/ha, 8 days", "result": 0, "unit": "%"},
      {"measurement": "% phyto", "setting": "[2]; 15 g/ha, 14 days", "result": 0, "unit": "%"},
      {"measurement": "% phyto", "setting": "[2]; 15 g/ha, 28 days", "result": 0, "unit": "%"},
      {"measurement": "% phyto", "setting": "[2]; 30 gai/ha, 8 DAA", "result": 0, "unit": "%"},
      {"measurement": "% phyto", "setting": "[2]; 30 gai/ha, 17 DAA", "result": 0, "unit": "%"},
      {"measurement": "% phyto", "setting": "[2]; 30 gai/ha, 31 DAA", "result": 0, "unit": "%"}
    ]},
    {"molecule": "COC(=O)c1ccccc1S(=O)(=O)NC(=O)Nc1nc(C)nc(OC)n1", "note": "[Metsulfuron-methyl (A1-28), metsulfuron-methyl]", "values": [
      {"measurement": "% phyto", "setting": "[1]; 8 g/ha, 8 days", "result": 88, "unit": "%"},
      {"measurement": "% phyto", "setting": "[1]; 8 g/ha, 14 days", "result": 98, "unit": "%"},
      {"measurement": "% phyto", "setting": "[1]; 8 g/ha, 28 days", "result": 99, "unit": "%"}
    ]},
    {"molecule": "COc1cc(OC)n2nc(S(=O)(=O)Nc3c(Cl)ccc(C)c3Cl)nc2n1", "note": "[Metosulam (A3-5), metosulam]", "values": [
      {"measurement": "% phyto", "setting": "[1]; 30 g/ha, 8 days", "result": 90, "unit": "%"},
      {"measurement": "% phyto", "setting": "[1]; 30 g/ha, 14 days", "result": 97, "unit": "%"},
      {"measurement": "% phyto", "setting": "[1]; 30 g/ha, 28 days", "result": 93, "unit": "%"}
    ]},
    {"molecule": "COc1ncc(F)c2nc(S(=O)(=O)Nc3c(F)cccc3F)nn12", "note": "[Florasulam (A3-3), florasulam]", "values": [
      {"measurement": "% phyto", "setting": "[2]; 10 g/ha, 8 days (Table 3)", "result": 0, "unit": "%"},
      {"measurement": "% phyto", "setting": "[2]; 10 g/ha, 16 days", "result": 0, "unit": "%"},
      {"measurement": "% phyto", "setting": "[2]; 10 g/ha, 38 days", "result": 0, "unit": "%"},
      {"measurement": "% phyto", "setting": "[3]; 10 g/ha, 8 days", "result": 80, "unit": "%"},
      {"measurement": "% phyto", "setting": "[3]; 10 g/ha, 16 days", "result": 98, "unit": "%"},
      {"measurement": "% phyto", "setting": "[3]; 10 g/ha, 38 days", "result": 98, "unit": "%"}
    ]},
    {"molecule": "COC(=O)c1ccccc1S(=O)(=O)NC(=O)N(C)c1nc(C)nc(OC)n1", "note": "[Tribenuron-methyl (A1-31), tribenuron-methyl]", "values": [
      {"measurement": "% phyto", "setting": "[1]; 30 g/ha, 8 days", "result": 91, "unit": "%"},
      {"measurement": "% phyto", "setting": "[1]; 30 g/ha, 14 days", "result": 98, "unit": "%"},
      {"measurement": "% phyto", "setting": "[1]; 30 g/ha, 28 days", "result": 100, "unit": "%"}
    ]},
    {"molecule": "COc1nn(C(=O)[N-]S(=O)(=O)c2ccccc2OC(F)(F)F)c(=O)n1C.[Na+]", "note": "[Flucarbazone-sodium (A2-1), flucarbazone-sodium]", "values": [
      {"measurement": "% phyto", "setting": "[2]; 40 g/ha, 8 days (Table 3)", "result": 0, "unit": "%"},
      {"measurement": "% phyto", "setting": "[2]; 40 g/ha, 16 days", "result": 0, "unit": "%"},
      {"measurement": "% phyto", "setting": "[2]; 40 g/ha, 38 days", "result": 0, "unit": "%"},
      {"measurement": "% phyto", "setting": "[3]; 40 g/ha, 8 days", "result": 80, "unit": "%"},
      {"measurement": "% phyto", "setting": "[3]; 40 g/ha, 16 days", "result": 89, "unit": "%"},
      {"measurement": "% phyto", "setting": "[3]; 40 g/ha, 38 days", "result": 89, "unit": "%"}
    ]},
    {"molecule": "COC(=O)c1ccc(CNS(C)(=O)=O)cc1S(=O)(=O)NC(=O)Nc1nc(OC)cc(OC)n1", "note": "[Mesosulfuron-methyl (A1-17), mesosulfuron-methyl]", "values": [
      {"measurement": "% phyto", "setting": "[1]; 60 g/ha, 8 days", "result": 90, "unit": "%"},
      {"measurement": "% phyto", "setting": "[1]; 60 g/ha, 14 days", "result": 97, "unit": "%"},
      {"measurement": "% phyto", "setting": "[1]; 60 g/ha, 28 days", "result": 99, "unit": "%"}
    ]},
    {"molecule": "COc1cc(OC)nc(NC(=O)NS(=O)(=O)c2ncccc2C(=O)N(C)C)n1", "note": "[Nicosulfuron (A1-20), nicosulfuron]", "values": [
      {"measurement": "% phyto", "setting": "[1]; 60 g/ha, 8 days", "result": 90, "unit": "%"},
      {"measurement": "% phyto", "setting": "[1]; 60 g/ha, 14 days", "result": 98, "unit": "%"},
      {"measurement": "% phyto", "setting": "[1]; 60 g/ha, 28 days", "result": 100, "unit": "%"},
      {"measurement": "% phyto", "setting": "[2]; 60 g/ha, 8 days", "result": 0, "unit": "%"},
      {"measurement": "% phyto", "setting": "[2]; 60 g/ha, 14 days", "result": 0, "unit": "%"},
      {"measurement": "% phyto", "setting": "[2]; 60 g/ha, 28 days", "result": 0, "unit": "%"}
    ]}
  ]
}
